Measurements reported in PMC7190724, “Improved GPCR ligands from nanobody tethering” (Nature Communications, 2020).
Like-named read-outs stand apart in the source and are kept apart here. Where a SMILES comes first, the peptide text is derived from it. [ ]: non-standard residue; d: D form. Aib = CC(C)(N)C(=O)O

How the values were obtained:
[1] = biological target: T1, PTHR1GFP (Homo sapiens, UniProt Q03431); test: cAMP response (GloSensor luminescence), HEK293 stably expressing PTHR1GFP (GPG10); assay type: cell-based
T1 sequence (Q03431 27-593): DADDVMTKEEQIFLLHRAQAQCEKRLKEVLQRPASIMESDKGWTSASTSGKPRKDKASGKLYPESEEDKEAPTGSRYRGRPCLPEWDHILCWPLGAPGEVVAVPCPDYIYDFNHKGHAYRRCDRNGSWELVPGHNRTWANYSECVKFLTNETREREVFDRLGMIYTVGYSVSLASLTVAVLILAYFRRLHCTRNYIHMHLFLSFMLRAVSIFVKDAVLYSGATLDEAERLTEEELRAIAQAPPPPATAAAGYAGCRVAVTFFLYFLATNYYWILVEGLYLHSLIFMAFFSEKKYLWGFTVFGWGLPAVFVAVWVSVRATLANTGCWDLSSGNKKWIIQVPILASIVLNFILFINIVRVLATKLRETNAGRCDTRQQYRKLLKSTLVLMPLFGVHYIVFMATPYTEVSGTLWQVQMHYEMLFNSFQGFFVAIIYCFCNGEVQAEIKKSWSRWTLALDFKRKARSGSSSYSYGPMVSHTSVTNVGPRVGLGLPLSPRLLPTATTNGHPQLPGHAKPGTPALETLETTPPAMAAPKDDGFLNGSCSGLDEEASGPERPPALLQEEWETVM
Protocol: (§1) These assays were performed as previously described. Briefly, HEK-293-derived cell lines that stably express the Glosensor cAMP reporter (Promega Corp.)[30] and PTHR1, a PTHR1 variant, or PTHR2 were seeded into white sided 96-well plates (50,000 cells/well) and grown to confluency. Confluent monolayers of cells were pre-incubated with CO2 independent medium containing D-luciferin (0.5 mM) at 37 °C until a stable baseline level of luminescence was established (20 min). Varying concentrations of ligands were then added, and the time course of luminescence response was recorded using BioTek plate reader. The maximal luminescence response (observed 12–16 min after ligand addition) was used to construct dose-response data sets (Table 1, Supplementary Fig. 6).
(§2) Data were processed using Microsoft Excel and GraphPad Prism 6. Data from cAMP dose–response assays were analyzed using a sigmoidal dose–response model with variable slope. Data sets were statistically compared by using Student’s t test (two-tailed) assuming unequal variances for the two sets.
Supplementary Figure 1. […]
GFP variant known as pHluorin2 engrafted into the receptor(ref. 19, main text). c) HEK293 cells stably expressing PTHR1-GFP were treated with varied doses of the indicated peptides or conjugates and activation was assessed by measuring luminescence from a cAMP-activated luciferase variant. Values listed represent EC50 values (mean ± SD). Each value comes from ≥ 3 independent experiments. Further details, including the number of replicates for each measurement and the normalized maximal responses induced, are reported in Supplementary Table 1. […]
than 5% of the maximal response induced for that cell line.
Peptide or conjugate PTHR1GFP

[2] = biological target: T2, PTHR1_6E (Homo sapiens, UniProt Q03431); test: cAMP response (GloSensor luminescence), HEK293 stably expressing PTHR1_6E; assay type: cell-based; conditions: peak GloSensor luminescence; mean ± SD, ≥3 independent experiments; read-out: EC50, cAMP induction
T2 sequence (Q03431 106-593 limits assumed): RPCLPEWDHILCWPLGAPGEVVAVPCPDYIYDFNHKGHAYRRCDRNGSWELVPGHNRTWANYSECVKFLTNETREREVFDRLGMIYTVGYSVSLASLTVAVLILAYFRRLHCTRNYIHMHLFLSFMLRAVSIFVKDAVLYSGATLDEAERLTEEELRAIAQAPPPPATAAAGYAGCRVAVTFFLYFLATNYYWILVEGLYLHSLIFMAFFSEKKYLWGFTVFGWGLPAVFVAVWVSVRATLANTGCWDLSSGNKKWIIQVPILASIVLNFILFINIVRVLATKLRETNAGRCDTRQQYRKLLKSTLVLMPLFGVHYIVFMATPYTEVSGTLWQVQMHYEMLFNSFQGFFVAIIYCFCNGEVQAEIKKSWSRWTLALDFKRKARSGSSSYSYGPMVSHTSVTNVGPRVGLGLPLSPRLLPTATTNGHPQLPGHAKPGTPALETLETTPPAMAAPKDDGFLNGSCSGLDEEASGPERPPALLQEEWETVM
Protocol: (§3) A HEK293 cell line stably expressing β-Arrestin2-YFP (GBR24) was constructed similarly. PTHR1_6E was produced using the Q5 Site-directed mutagenesis kit (NEB) and used to prepare a stably transfected HEK293-derived cell line. Annotated sequence data for all PTHR1 constructs are found in Supplementary Fig. 19. Aligned sequences of VHHs used in this study are shown in Supplementary Fig. 20.
(§4) These assays were performed as previously described. […] Confluent monolayers of cells were pre-incubated with CO2 independent medium containing D-luciferin (0.5 mM) at 37 °C until a stable baseline level of luminescence was established (20 min). Varying concentrations of ligands were then added, and the time course of luminescence response was recorded using BioTek plate reader.
as §2

[3] = biological target: T3, hPTHR1 (Homo sapiens, UniProt Q03431); test: cAMP response (GloSensor luminescence), HEK293 stably expressing human PTHR1 (GP2.3); assay type: cell-based; conditions: peak GloSensor luminescence 12–16 min after ligand; mean ± SD, ≥3 independent experiments; highest conc. 100 nM conjugates, 10,000 nM peptides; read-out: EC50, cAMP induction
T3 construct: expressed in transfected cells; host or cells: HEK293 (clone GP2.3) with GloSensor cAMP reporter
T3 sequence (Q03431 27-593): T1 sequence (Q03431 27-593)
Protocol: as §3, §4, §2

[4] = biological target: T4, PTHR1YFPΔECD (Homo sapiens, UniProt Q03431); test: cAMP response (GloSensor luminescence), HEK293 stably expressing PTHR1YFPΔECD (GD5Y); assay type: cell-based; conditions: peak GloSensor luminescence; mean ± SD, ≥3 independent experiments; read-out: EC50, cAMP induction
T4 construct: expressed in transfected cells; host or cells: HEK293 (clone GD5Y) with GloSensor cAMP reporter
T4 sequence (Q03431 with tags, fused parts or gaps limits assumed): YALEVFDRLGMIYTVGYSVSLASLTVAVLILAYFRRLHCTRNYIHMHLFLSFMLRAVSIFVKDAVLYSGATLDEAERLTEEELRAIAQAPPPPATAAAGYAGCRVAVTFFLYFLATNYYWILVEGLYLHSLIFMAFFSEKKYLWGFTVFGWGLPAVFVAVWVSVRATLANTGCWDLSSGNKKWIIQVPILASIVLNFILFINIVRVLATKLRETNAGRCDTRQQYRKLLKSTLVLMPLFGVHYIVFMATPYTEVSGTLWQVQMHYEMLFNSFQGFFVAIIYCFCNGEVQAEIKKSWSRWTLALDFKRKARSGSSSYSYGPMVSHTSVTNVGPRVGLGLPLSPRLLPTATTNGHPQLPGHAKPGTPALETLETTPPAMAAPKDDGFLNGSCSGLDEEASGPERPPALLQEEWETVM
Protocol: as §3, §4, §2

[5] = biological target: T5, hPTHR2 (Homo sapiens, UniProt P49190); test: cAMP response (GloSensor luminescence), HEK293 stably expressing hPTHR2; assay type: cell-based; conditions: peak GloSensor luminescence; mean ± SD, n = 3-4; read-out: EC50, cAMP induction
T5 construct: expressed in transfected cells
Protocol: as §1, §2

[6] = biological target: T1, PTHR1GFP; test: Flow cytometry binding of VHH-Alexafluor647 to HEK293 expressing PTHR1GFP; conditions: 100 nM VHH-Alexafluor647, on ice
Protocol: (§5) Suspensions of cells in PBS were stained for 1 h on ice in the presence of indicated concentrations of VHH probes functionalized with Alexafluor647. Cells were pelleted by centrifugation and washed with PBS prior to analysis by flow cytometry (BD Accuri C6). To select intact cells gating was performed on forward scatter/side scatter profiles for analysis (see Supplementary Fig. 4 for an example of the gating strategy). Data were analyzed using FlowJo version 7.6. The median fluorescent intensity (MFI) of stained cells was used to generate VHH binding dose response curves (Supplementary Fig. 4).
Supplementary Figure 1. […] HEK293 cell lines in suspension were incubated on ice with 100 nM VHH sortagged with Alexafluor647, pelleted by centrifugation, washed and analyzed. […]
PTHR1GFP. This weak staining is likely related to the inability of VHHGFP to tightly bind the pH-sensitive GFP variant known as pHluorin2 engrafted into the receptor(ref. 19, main text). c) HEK293 cells stably expressing PTHR1-GFP were treated with varied doses of the indicated peptides or conjugates and activation was assessed by measuring luminescence from a cAMP-activated luciferase variant. […]
Supplementary Figure 4. […] Cells were centrifuged, washed, and analyzed by flow cytometry via gating of intact cells (live gate) based on forward scatter/side scatter profiles (panel a). […]

[7] = biological target: T4, PTHR1YFPΔECD; test: Flow cytometry binding of VHH-Alexafluor647 to HEK293 expressing PTHR1YFPΔECD
Protocol: as §5
Supplementary Figure 4. Assessment of VHH binding to PTHR1 variants by flow cytometry. Cells dislodged from tissue culture plates using trypsinization were incubated with varied concentrations of VHHs sortagged with AlexaFluor647 on ice for 1 h. Cells were centrifuged, washed, and analyzed by flow cytometry via gating of intact cells (live gate) based on forward scatter/side scatter profiles (panel a). (b) Data points represent median fluorescent intensity values ( individual data points shown, n = 2 independent replicates per condition). Connecting curves are the result of fitting a sigmoidal dose - response model to the data points. Precise estimates for VHH PTHR binding cannot be provided since the […]
(1 picture or pasted object on this page, not shown here)

T5 sequence (P49190 25-550): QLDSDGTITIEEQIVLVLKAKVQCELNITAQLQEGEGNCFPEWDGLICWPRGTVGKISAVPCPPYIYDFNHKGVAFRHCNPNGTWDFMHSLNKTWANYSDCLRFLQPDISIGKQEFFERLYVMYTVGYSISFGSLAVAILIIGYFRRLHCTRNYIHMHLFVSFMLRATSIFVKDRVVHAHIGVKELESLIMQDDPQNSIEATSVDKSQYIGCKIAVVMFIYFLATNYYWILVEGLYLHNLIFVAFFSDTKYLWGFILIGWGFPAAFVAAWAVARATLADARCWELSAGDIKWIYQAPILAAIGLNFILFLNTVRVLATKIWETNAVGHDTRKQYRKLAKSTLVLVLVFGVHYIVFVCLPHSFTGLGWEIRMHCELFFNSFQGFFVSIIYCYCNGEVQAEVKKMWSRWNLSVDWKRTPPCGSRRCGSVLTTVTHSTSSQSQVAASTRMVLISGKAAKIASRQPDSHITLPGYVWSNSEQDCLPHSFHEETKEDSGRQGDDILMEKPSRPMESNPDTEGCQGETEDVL

Molecule	EC50 ([1]; peak GloSensor luminescence, mean ± SD, ≥3 independent experiments, read-out: EC50, cAMP induction) [nM]	EC50 [2] [nM]	EC50 [3] [nM]	EC50 [4] [nM]	EC50 [5] [nM]	EC50 [1] [nM]	staining of cells [6]	staining of cells ([7]; 100 nM VHH-Alexafluor647, on ice)	half-maximal staining concentration ([7]; flow cytometry MFI, VHH-Alexafluor647, 1 h on ice) [nM]
CC[C@H](C)[C@H](NC(=O)[C@H](CCC(=O)O)NC(=O)C(C)(C)NC(=O)[C@@H](NC(=O)[C@H](C)N)C(C)C)C(=O)N[C@@H](CCC(N)=O)C(=O)N[C@@H](CC(C)C)C(=O)N[C@@H](CCSC)C(=O)N[C@@H](Cc1c[nH]cn1)C(=O)N[C@@H](CCC(N)=O)C(=O)N[C@@H](CS)C(N)=O [PTH(1-10)] (H-AV[Aib]EIQLMHQC-NH2)	2550 ± 653	5080	3120	3840					
CC[C@H](C)[C@H](NC(=O)[C@H](CCC(=O)O)NC(=O)C(C)(C)NC(=O)[C@@H](NC(=O)[C@H](C)N)C(C)C)C(=O)N[C@@H](CCC(N)=O)C(=O)N[C@@H](CC(C)C)C(=O)N[C@@H](CCSC)C(=O)N[C@@H](Cc1c[nH]cn1)C(=O)N[C@@H](CCC(N)=O)C(=O)N[C@@H](CCCNC(=N)N)C(=O)N[C@@H](C)C(=O)N[C@@H](CCCCN)C(=O)N[C@@H](Cc1c[nH]c2ccccc12)C(=O)N[C@@H](CS)C(N)=O [PTH(1-14)] (H-AV[Aib]EIQLMHQRAKWC-NH2)		3.4	4.3	1.1	924 ± 328	2.3 ± 1.2			
VHHGFP: nanobody recognizing green or yellow fluorescent proteins (named VHH-enhancer)							only weakly stained	stained	< 10
